Converted amounts (≈) assume the structure as drawn.
Assay: In vitro reduction in viability of KB cells by modified crystal violet assay.
Assay type: functional, cell-based
Details: Homo sapiens

Compound | IC50 [µg/mL]
CS(=O)(=O)OCC1CN(S(C)(=O)=O)c2cc(OCc3ccccc3)ccc21 (configuration not stated) | 4.39 (≈ 10.7 µM)
CS(=O)(=O)N1CC(CCl)c2cc([N+](=O)[O-])c(O)cc21 (configuration not stated) | 8.85 (≈ 28.9 µM)
CS(=O)(=O)N1CC(CCl)c2cc(C=O)c(OCc3ccccc3)cc21 (configuration not stated) | 3.24 (≈ 8.53 µM)
CS(=O)(=O)OCC1CN(S(C)(=O)=O)c2cc(O)c([N+](=O)[O-])cc21 (configuration not stated) | 0.764 (≈ 2.09 µM)
CS(=O)(=O)N1CC2CC23C=CC(=O)C=C13 (configuration not stated) | 8.64 (≈ 38.4 µM)
CS(=O)(=O)N1CC(CCl)c2cc(C=O)c(O)cc21 (configuration not stated) | 4.83 (≈ 16.7 µM)
CS(=O)(=O)OCC1CN(S(C)(=O)=O)c2cc(O)ccc21 (configuration not stated) | 3.69 (≈ 11.5 µM)
CS(=O)(=O)N1CC(CCl)c2ccc(OCc3ccccc3)cc21 (configuration not stated) | 6.32 (≈ 18 µM)
CS(=O)(=O)OCC1CN(S(C)(=O)=O)c2cc(OCc3ccccc3)c([N+](=O)[O-])cc21 (configuration not stated) | 7.91 (≈ 17.3 µM)
CS(=O)(=O)N1CC(CCl)c2cc(Br)c(OCc3ccccc3)cc21 (configuration not stated) | 6.18 (≈ 14.3 µM)
CS(=O)(=O)N1CC(CCl)c2cc(Br)c(O)cc21 (configuration not stated) | 3.8 (≈ 11.2 µM)
CS(=O)(=O)N1CC(CCl)c2ccc(O)cc21 (configuration not stated) | 4.24 (≈ 16.2 µM)
CS(=O)(=O)OCC1CN(S(C)(=O)=O)c2cc(OCc3ccccc3)c(Br)cc21 (configuration not stated) | 5.21 (≈ 10.6 µM)
COC(=O)c1cc2c(cc1O)N(S(C)(=O)=O)CC2CCl (configuration not stated) | 8.38 (≈ 26.2 µM)
CS(=O)(=O)OCC1CN(S(C)(=O)=O)c2cc(O)c(Br)cc21 (configuration not stated) | 0.308 (≈ 0.769 µM)
COC(=O)c1cc2c(cc1OCc1ccccc1)N(S(C)(=O)=O)CC2CCl (configuration not stated) | 7.14 (≈ 17.4 µM)
COc1cccc2c1C(=O)c1c(O)c3c(c(O)c1C2=O)C[C@@](O)(C(=O)CO)C[C@@H]3O[C@H]1C[C@H](N)[C@H](O)[C@H](C)O1 [DOXORUBICIN] | 0.02 (≈ 0.0368 µM)
